Measured values: publication PMC5053523, “In Vitro Antibacterial Activity of Rhodanine Derivatives against Pathogenic Clinical Isolates” (PLoS ONE, 2016)
Converted amounts (≈) assume the structure as drawn. Read-outs that look alike come from different tables or passages of the source.

What was measured:
[1] = test system: methicillin-resistant Staphylococcus aureus (MRSA); assay: Broth microdilution MIC/MBC, MRSA; type: cell-based
[2] = test system: Vancomycin Resistant Staphylococcus aureus (VRSA); assay: Broth microdilution MIC/MBC, VRSA; type: cell-based; settings: for MBC / MIC: VRSA
[3] = test system: Bacillus Strains; assay: Broth microdilution MIC50/MIC90 and MIC range, Bacillus strains panel; type: cell-based, Bacillus spp.; settings: 10 Bacillus strains
Description: The broth microdilution technique was used, followed by subculturing on agar plates that were rhodanine—free. […] The MICs reported represent the lowest concentration of each compound necessary to inhibit bacterial growth and the MBCs represent the lowest concentration required to reduce the initial bacterial inoculum by ≥ 99.9%.

[4] = test system: Clostridium difficile; assay: MIC against Clostridium difficile, anaerobic broth dilution; type: cell-based; settings: Clostridioides difficile
Summary of the method: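 Clinical C. difficile isolates grown anaerobically 48 h at 37 °C, suspended to 0.5 McFarland and diluted 1:300 in pre-reduced supplemented Brain Heart Infusion broth. Compounds serially diluted; plates incubated anaerobically at 37 °C for 48 h. MIC = lowest concentration with no visible growth.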

[5] = test system: Mycobacterium smegmatis; assay: Broth microdilution MIC/MBC, Mycobacterium smegmatis; type: cell-based; settings: Mycolicibacterium smegmatis, ATCC14468, M. Smegmatis ATCC 14468
[6] = test system: K. pneumoniae; assay: Broth microdilution MIC, K. pneumoniae; type: cell-based
[7] = test system: Candida albicans; assay: MIC against Candida albicans; type: cell-based; settings: table prints none, read-out: MIC
[8] = test system: Acinetobacter baumannii; assay: MIC with/without sub-MIC colistin, Acinetobacter baumannii; type: cell-based
Summary of the method: (§1)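 MIC of rhodanines and control antibiotics measured against Gram-negative bacteria in the presence of a sub-inhibitory concentration of colistin or polymixin B nonapeptide (PMBN). Activity was also tested against E. coli SM1411ΔacrAB, which lacks the AcrAB multidrug efflux pump.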

[9] = test system: Escherichia coli O157:H7; assay: MIC with/without sub-MIC colistin, Escherichia coli O157:H7; type: cell-based
Summary of the method: as §1

[10] = test system: Pseudomonas aeruginosa; assay: MIC with/without sub-MIC colistin, Pseudomonas aeruginosa; type: cell-based
Summary of the method: as §1

[11] = test system: Escherichia coli O157:H7; assay: MIC with/without PMBN, Escherichia coli O157:H7; type: cell-based
Summary of the method: as §1

[12] = test system: Salmonella Typhimurium; assay: MIC with/without PMBN, Salmonella Typhimurium; type: cell-based
Summary of the method: as §1

[13] = test system: Pseudomonas aeruginosa; assay: MIC with/without PMBN, Pseudomonas aeruginosa; type: cell-based
Summary of the method: as §1

[14] = test system: Escherichia coli Δ acrAB; assay: MIC against E. coli 1411 and AcrAB efflux pump deficient E. coli SM1411Δ acrAB; type: cell-based
Summary of the method: as §1

O=C(O)[C@H](Cc1ccccc1)N1C(=O)/C(=C/c2cccc(OC/C=C/c3ccc(Cl)c(Cl)c3)c2)SC1=S [Rh 6]
MIC50 ([1]; 11 MRSA strains): 4 µM (≈ 2.28 µg/mL)
MIC90 ([1]; 11 MRSA strains): 8 µM (≈ 4.56 µg/mL)
MBC ([1]; MRSA NRS 1): 8 µM (≈ 4.56 µg/mL)
MIC ([1]; MRSA NRS 1): 8 µM (≈ 4.56 µg/mL)
MBC ([1]; MRSA NRS 19): 8 µM (≈ 4.56 µg/mL)
MIC ([1]; MRSA NRS 19): 8 µM (≈ 4.56 µg/mL)
MBC ([1]; MRSA NRS 37): 16 µM (≈ 9.13 µg/mL)
MIC ([1]; MRSA NRS 37): 8 µM (≈ 4.56 µg/mL)
MBC ([1]; MRSA NRS 107): 8 µM (≈ 4.56 µg/mL)
MIC ([1]; MRSA NRS 107): 8 µM (≈ 4.56 µg/mL)
MBC ([1]; MRSA NRS 119): 4 µM (≈ 2.28 µg/mL)
MIC ([1]; MRSA NRS 119): 4 µM (≈ 2.28 µg/mL)
MBC ([1]; MRSA NRS 382): 16 µM (≈ 9.13 µg/mL)
MIC ([1]; MRSA NRS 382): 4 µM (≈ 2.28 µg/mL)
MBC ([1]; MRSA NRS 383): 8 µM (≈ 4.56 µg/mL)
MIC ([1]; MRSA NRS 383): 4 µM (≈ 2.28 µg/mL)
MBC ([1]; MRSA NRS 384): 4 µM (≈ 2.28 µg/mL)
MIC ([1]; MRSA NRS 384): 4 µM (≈ 2.28 µg/mL)
MBC ([1]; MRSA NRS 385): 4 µM (≈ 2.28 µg/mL)
MIC ([1]; MRSA NRS 385): 4 µM (≈ 2.28 µg/mL)
MBC ([1]; MRSA NRS 386): 32 µM (≈ 18.3 µg/mL)
MIC ([1]; MRSA NRS 386): 4 µM (≈ 2.28 µg/mL)
MBC ([1]; MRSA NRS 387): 8 µM (≈ 4.56 µg/mL)
MIC ([1]; MRSA NRS 387): 4 µM (≈ 2.28 µg/mL)
MIC50 ([2]; 15 VRSA strains, read-out: MIC 50): 4 µM (≈ 2.28 µg/mL)
MIC90 ([2]; 15 VRSA strains, read-out: MIC 90): 8 µM (≈ 4.56 µg/mL)
MBC ([2]; VRSA 1, read-out: MBC): > 64 µM
MIC ([2]; VRSA 1, read-out: MIC): 8 µM (≈ 4.56 µg/mL)
MBC ([2]; VRSA 2, read-out: MBC): 8 µM (≈ 4.56 µg/mL)
MIC ([2]; VRSA 2, read-out: MIC): 8 µM (≈ 4.56 µg/mL)
MBC ([2]; VRSA 3a, read-out: MBC): 8 µM (≈ 4.56 µg/mL)
MIC ([2]; VRSA 3a, read-out: MIC): 8 µM (≈ 4.56 µg/mL)
MBC ([2]; VRSA 3b, read-out: MBC): 16 µM (≈ 9.13 µg/mL)
MIC ([2]; VRSA 3b, read-out: MIC): 8 µM (≈ 4.56 µg/mL)
MBC ([2]; VRSA 4, read-out: MBC): 8 µM (≈ 4.56 µg/mL)
MIC ([2]; VRSA 4, read-out: MIC): 4 µM (≈ 2.28 µg/mL)
MBC ([2]; VRSA 5, read-out: MBC): 16 µM (≈ 9.13 µg/mL)
MIC ([2]; VRSA 5, read-out: MIC): 4 µM (≈ 2.28 µg/mL)
MBC ([2]; VRSA 6, read-out: MBC): 32 µM (≈ 18.3 µg/mL)
MIC ([2]; VRSA 6, read-out: MIC): 4 µM (≈ 2.28 µg/mL)
MBC ([2]; VRSA 7, read-out: MBC): 8 µM (≈ 4.56 µg/mL)
MIC ([2]; VRSA 7, read-out: MIC): 8 µM (≈ 4.56 µg/mL)
MBC ([2]; VRSA 8, read-out: MBC): 16 µM (≈ 9.13 µg/mL)
MIC ([2]; VRSA 8, read-out: MIC): 4 µM (≈ 2.28 µg/mL)
MBC ([2]; VRSA 9, read-out: MBC): 16 µM (≈ 9.13 µg/mL)
MIC ([2]; VRSA 9, read-out: MIC): 8 µM (≈ 4.56 µg/mL)
MBC ([2]; VRSA 10, read-out: MBC): 16 µM (≈ 9.13 µg/mL)
MIC ([2]; VRSA 10, read-out: MIC): 4 µM (≈ 2.28 µg/mL)
MBC ([2]; VRSA 11a, read-out: MBC): 64 µM (≈ 36.5 µg/mL)
MIC ([2]; VRSA 11a, read-out: MIC): 4 µM (≈ 2.28 µg/mL)
MBC ([2]; VRSA 11b, read-out: MBC): 32 µM (≈ 18.3 µg/mL)
MIC ([2]; VRSA 11b, read-out: MIC): 4 µM (≈ 2.28 µg/mL)
MBC ([2]; VRSA 12, read-out: MBC): 32 µM (≈ 18.3 µg/mL)
MIC ([2]; VRSA 12, read-out: MIC): 4 µM (≈ 2.28 µg/mL)
MBC ([2]; VRSA 13, read-out: MBC): 32 µM (≈ 18.3 µg/mL)
MIC ([2]; VRSA 13, read-out: MIC): 8 µM (≈ 4.56 µg/mL)
MIC50 [3]: 4 µM (≈ 2.28 µg/mL)
MIC90 [3]: 4 µM (≈ 2.28 µg/mL)
MIC ([4]; C. difficile HM-88): 4 µM (≈ 2.28 µg/mL)
MIC ([4]; C. difficile HM-745): 4 µM (≈ 2.28 µg/mL)
MIC ([4]; C. difficile HM-746): 2 µM (≈ 1.14 µg/mL)
MIC ([4]; C. difficile Isolate-1 NR-13427): 4 µM (≈ 2.28 µg/mL)
MIC ([4]; C. difficile Toxigenic Strain P8 NR-32888): 8 µM (≈ 4.56 µg/mL)
MBC ([5]; read-out: MBC): 32 µM (≈ 18.3 µg/mL)
MIC ([5]; read-out: MIC): 16 µM (≈ 9.13 µg/mL)
MIC ([6]; K. pneumoniae NR-15417): >128 µM
MIC ([6]; Klebsiella pneumoniae): > 128 µM
MIC ([7]; ATCC10231, C. albicans ATCC 10231, unit from abstract): > 64 µM
MIC ([7]; C. albicans NR 29434, unit from abstract): > 64 µM
MIC ([7]; C. albicans NR 29435, unit from abstract): > 64 µM
MIC ([7]; C. albicans NR29437, unit from abstract): > 64 µM
MIC ([7]; C. albicans NR29438, unit from abstract): > 64 µM
MIC ([7]; C. albicans NR 29446, unit from abstract): > 64 µM
MIC ([7]; C. albicans NR 29448, unit from abstract): > 64 µM
MIC ([7]; C. albicans NR 29449, unit from abstract): > 64 µM
MIC ([7]; C. albicans NR 29453, unit from abstract): > 64 µM
MIC ([7]; C. albicans NR 294436, unit from abstract): > 64 µM
MIC ([8]; Acinetobacter baumannii ATCC BAA747, colistin (+) […], read-out: MIC): >64 µM
MIC ([8]; Acinetobacter baumannii ATCC BAA19606, colistin (+) […], read-out: MIC): >64 µM
MIC ([8]; Acinetobacter baumannii, ATCCBAA747): > 128 µM
MIC ([8]; Acinetobacter baumannii, ATCCBAA19606): > 128 µM
MIC ([9]; Escherichia coli O157:H7 ATCC 35150, colistin (+) […], read-out: MIC): >64 µM
MIC ([9]; Escherichia coli O157:H7 ATCC 700728, colistin (+) […], read-out: MIC): >64 µM
MIC ([9]; Escherichia coli, ATCC35150): > 128 µM
MIC ([9]; Escherichia coli, ATCC700728): > 128 µM
MIC ([10]; Pseudomonas aeruginosa ATCC 921, colistin (+) […], read-out: MIC): >64 µM
MIC ([10]; Pseudomonas aeruginosa, ATCC921): > 128 µM
MIC ([11]; Escherichia coli O157:H7 ATCC 35150, PMBN (+) 4 μg/mL, read-out: MIC): 8 µM (≈ 4.56 µg/mL)
MIC ([11]; Escherichia coli O157:H7 ATCC 700728, PMBN (+) 4 μg/mL, read-out: MIC): >64 µM
MIC ([11]; Escherichia coli, ATCC35150): > 256 µM
MIC ([11]; Escherichia coli, ATCC700728): > 128 µM
MIC ([12]; Salmonella Typhimurium ATCC 700720, PMBN (+) 4 μg/mL, read-out: MIC): >128 µM
MIC ([12]; Salmonella enterica, ATCC 700720 / TYPHIMURIUM): > 128 µM
MIC ([13]; Pseudomonas aeruginosa ATCC 9721, PMBN (+) 4 μg/mL, read-out: MIC): >64 µM
MIC ([13]; Pseudomonas aeruginosa, ATCC9721): > 128 µM
MIC ([14]; E.coli 1411): > 64 µM
MIC ([14]; E.coli 1411 SM (Δ acrAB, AcrAB efflux pump deficient)): > 64 µM
